The conditions of data set [1]: in vivo; cited from earlier work.
Data set [2] has as its target T1, neprilysin (NEP) (Homo sapiens, UniProt P08473).
Data set [3] in a line: Local tolerance of CNP compounds in rats (s.c. injection, histopathology). It is filed as in vivo, Sprague Dawley rat. The note with it: rat, s.c. 350 μl, about 1000 nmol/ml, 5 days post injection. Here is the method: The purpose of this study was to evaluate the local tissue reaction to subcutaneous injection of CNP compounds in rats.
Procedure: The CNP compounds were formulated according to the principles described in General Methods of Preparation-Method G. Each Sprague Dawley rat (male, 10-11 weeks of age at arrival, Janvier, France) was dosed s.c. with 250 or 350 uL of the same compound (formulation concentration of 1000 nmol/mL) 120 h prior to tissue collection resulting in a total of two injections for each animal (Table 15). Injection site (flank or neck) was alternated across animals within each group and time point.
Animals had access to tap water and food (Altromin 1324) ad libitum. Group size was n=3 for vehicles and positive control, and n=4 for test compounds. Vehicles and compounds were formulated in either 5 mM sodium acetate, 250 mM glycerol, pH 4.0 or 8 mM sodium phosphate, 250 mM glycerol, pH 7.4 as shown in Table 16.
The animals were anesthetized with isoflurane. Via an electric shaving machine, a squared area of fur (2 cm×2 cm) was removed either from the rats' neck or flank area). For dosing, a new injection needle (25G canula, 1 ml syringe) was placed in the middle of the square border closest to the animal's head and the needle was inserted into the skin from the border towards the center of the square. […] On the day of tissue collection, the rats were deeply anaesthetized with isoflurane and euthanized by exsanguination. The injection sites were inspected and scored with regards to pathological lesions. The injection sites were evaluated, and any changes were noted (location, colour, shape and size), and sampled for histology preparation.
The injection sites were removed and fixed in 4% phosphate buffered neutral formaldehyde in sealed plastic containers.
Each injection site was subsequently cut into three sections 0.8 cm, 1.0 cm and 1.2 cm from the square border where the injection needle was placed, and, respectively, these sections represented the injection sites and the adjacent tissue. The tissue was processed, embedded in paraffin and cut in 2-4 μm thin sections, stained with the haematoxylin and eosin (H&E), and evaluated microscopically with a light microscope. Histopathological changes were graded on a 5-level scale (Minimal (Min), Mild (Mil), Moderate (Mod), Marked (Mar) and Severe (Sev)).

The nature of data set [4]: PK after i.v. and s.c. administration to Göttingen minipig. As to conditions: female, in vivo, Göttingen Minipig. As to the method:
The purpose of this study was to investigate pharmacokinetic and pharmacodynamic properties after intravenous (i.v.) and subcutaneous (s.c.) administration to Gottingen Minipig and domestic LYD pig, and to estimate bioavailability after s.c. dosing. Quantitative plasma analysis of CNP and cGMP levels were performed as described in
Animals and dosing: The pharmacokinetic and pharmacodynamic studies in Gottingen Minipig or domestic LYD pig were conducted at CRO Minerva Imaging or Novo Nordisk A/S, respectively. CNP compounds were dosed to normal female 1) Gottingen minipigs 6-12 months of age with an average weight of 22 kg or 2) domestic LYD pigs 4-5 months of age with and average weight of 80 kg. At least one week prior to dosing, permanent central venous catheters were implanted for blood sampling and intravenous (i.v.) dosing. For subcutaneous (s.c.) dosing, the pigs were ultrasound scanned and the optimal injection area laterally on the neck marked by a permanent tattoo. An insulin pen (NovoPen Echo or NovoPen 4) and insulin needle (NovoFine 32G/4 mm or NovoTwist 32G/5 mm) were used for accurate deposition of the CNP formulations in the subcutaneous fat tissue with the needle perpendicular to the skin.
CNP compounds were formulated according to the principles in General Methods of Preparation—Method G and were either A) 8 mM sodium phosphate, 250 mM glycerol, pH 6.5, B) 5 mM sodium acetate, 250 mM glycerol, pH 4.0, C) 5 mM sodium acetate, 240 mM propylene glycol, pH=4.0, D) 8 mM sodium phosphate, 250 mM glycerol, pH 7.5 or E) 20 mM sodium phosphate, 223 mM propylene glycol, pH 6.0.
Intravenously, the CNP compounds were dosed at 30-60 nmol/kg to Minipig and 15-43 nmol/kg to domestic pig using formulations A-E. Subcutaneously, the CNP compounds were dosed at 55-62 nmol/kg to Minipig and 20-30 nmol/kg to domestic pig using formulations A-D.
Sampling: Blood samples of approximately 1 mL were collected pre dose and up to 14 days post dose into EDTA-coated tubes (8 mM) for cGMP and CNP compound analysis by LC-MS. In few instances, cGMP was only analysed up to 48 hours post dose after intravenous dosing in domestic LYD pig. The blood samples were kept on wet ice for maximum 30 minutes until centrifugation for 10 minutes at 4° C. and minimum 1500G, and the plasma samples were stored at −20° C. until analysis.
Plasma concentration-time profiles were analyzed by non-compartmental PK analysis using Phoenix WinNonlin 8.1, Pharsight Inc., Mountain View, CA, USA. Calculation of the area under the plasma concentration-time curve (AUC) was based on the “linear up log down” method, and uniform weighting was used for estimation of the terminal rate constant (λz). S.c. bioavailability (F) was calculated as the dose-normalized AUC (AUC/dose) after s.c. administration divided by the AUC/dose after i.v. administration. […]

For data set [5], the target named is T1, neprilysin (NEP). Nature of the data set: In vitro neprilysin stability. As to conditions: recombinant human neprilysin (rhNEP), pH 7.4.
Data set [6] can be described thus: CNP local tolerance study in LYD pigs (s.c. injection, histopathology). It counts as in vivo, domestic LYD pig. The note with it: LYD pig, s.c., approx. 4400 μM, 4 or 5 days after injection. From the text: The purpose of this study was to evaluate the local tissue reaction response to subcutaneous injection of CNP compounds in pigs.
Procedure: In domestic pigs, the injection site was subjected to histopathologic examination after subcutaneous dosing. Injections were placed mid-back between the shoulder and hip on both sides of the dorsal midline, and one or two days before injection sites of 2×2 cm were shaved and marked by permanent ink under light anaesthesia. Each injection consisted of 100 or 200 μl formulation with a concentration of approx. 4400 μM. CNP compound formulations were prepared according to the principles in General Methods of Preparation—Method G, and were either A) 8 mM sodium phosphate, 250 mM glycerol, pH 6.5, B) 5 mM sodium acetate, 250 mM glycerol, pH 4.0 or C) 5 mM sodium acetate, 240 mM propylene glycol, pH 4.0 and physiological saline was included as negative control.
On Day 1 the pigs were lightly anaesthetised. An insulin pen (NovoPen 4) and insulin needle (NovoTwist 32G/5 mm) were used for accurate deposition of the CNP formulations in the subcutaneous fat tissue with the needle perpendicular to the skin. On Day 5 (4 days post injection) or 6 (5 days post injection), the pigs were euthanised, and the injection sites were removed and fixed in 4% phosphate buffered neutral formaldehyde in sealed plastic containers. The tissue blocks were prefixed for 2-4 hours in 10% buffered formalin, cut into 2 mm thick slabs with a multi knife, examined for macroscopic changes and finally fixed overnight in cassettes. Two slabs of tissue were selected for light microscopic evaluation where the tissue reaction was maximal or alternatively in the central part of the injection site. Three to four 2-4 μm sections were cut from three levels at 100 μm distance, stained with haematoxylin and eosin (H&E) and evaluated in a light microscope. Histopathological changes were graded on a 5-level scale ((Minimal (Min), Mild (Mil), Moderate (Mod), Marked (Mar) and Severe (Sev)). The studies are summarised in Table 18.
Results: The results are summarised in Table 19. * Necrosis was used as a marker for local subcutaneous reactions; **NAD: No Abnormalities Detected

The target of data set [7] is Recombinant human neprilysin (rhNEP; R&D Systems) (human) (UniProt P08473). Nature of the data set: cell-based or functional assay.
Sequence of Recombinant human neprilysin (rhNEP; R&D Systems) (human) (P08473 52-750 limits assumed): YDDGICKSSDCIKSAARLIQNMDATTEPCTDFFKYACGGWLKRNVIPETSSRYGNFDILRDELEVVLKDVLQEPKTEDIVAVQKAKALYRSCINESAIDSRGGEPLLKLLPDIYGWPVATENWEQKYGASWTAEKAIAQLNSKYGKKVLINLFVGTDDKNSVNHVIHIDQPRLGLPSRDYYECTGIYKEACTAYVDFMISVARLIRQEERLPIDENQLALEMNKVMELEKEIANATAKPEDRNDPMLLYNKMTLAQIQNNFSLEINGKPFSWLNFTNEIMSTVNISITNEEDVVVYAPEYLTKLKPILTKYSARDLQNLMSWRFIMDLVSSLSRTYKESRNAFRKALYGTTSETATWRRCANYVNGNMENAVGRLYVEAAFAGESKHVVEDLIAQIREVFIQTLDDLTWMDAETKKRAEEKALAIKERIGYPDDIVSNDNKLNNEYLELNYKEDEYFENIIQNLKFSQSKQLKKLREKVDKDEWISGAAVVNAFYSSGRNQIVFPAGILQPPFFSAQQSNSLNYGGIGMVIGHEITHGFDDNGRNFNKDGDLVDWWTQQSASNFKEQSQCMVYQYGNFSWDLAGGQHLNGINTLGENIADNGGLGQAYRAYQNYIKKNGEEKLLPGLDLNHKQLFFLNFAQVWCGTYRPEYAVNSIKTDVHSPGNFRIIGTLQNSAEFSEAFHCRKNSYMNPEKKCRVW
Data set [8] addresses Recombinant human neprilysin (rhNEP; R&D Systems) (human, UniProt P08473 52-750). The data set can be described thus: cell-based or functional assay.

Read-outs that look alike come from different tables or passages of the source. Starred links: 1 amine or outer side, 2 acyl side, 3 side chain; linkers in the order of their positions; H or OH if unused. Positions of bridges follow the written chain, without caps; N, C: chain ends. Residues, ends and D or L forms follow the SMILES beside them. No end group written: not given here. *: point of attachment. C18 diacid = O=C(O)CCCCCCCCCCCCCCCCC(=O)*; γGlu = O=C(O)[C@H](CCC(=O)[*:2])N[*:1]; C18d = not defined here; AEEA = NCCOCCOCC(=O)O

Sequence of Recombinant human neprilysin (rhNEP; R&D Systems) (P08473 52-750 limits assumed): as above
T1 sequence (P08473 whole entry): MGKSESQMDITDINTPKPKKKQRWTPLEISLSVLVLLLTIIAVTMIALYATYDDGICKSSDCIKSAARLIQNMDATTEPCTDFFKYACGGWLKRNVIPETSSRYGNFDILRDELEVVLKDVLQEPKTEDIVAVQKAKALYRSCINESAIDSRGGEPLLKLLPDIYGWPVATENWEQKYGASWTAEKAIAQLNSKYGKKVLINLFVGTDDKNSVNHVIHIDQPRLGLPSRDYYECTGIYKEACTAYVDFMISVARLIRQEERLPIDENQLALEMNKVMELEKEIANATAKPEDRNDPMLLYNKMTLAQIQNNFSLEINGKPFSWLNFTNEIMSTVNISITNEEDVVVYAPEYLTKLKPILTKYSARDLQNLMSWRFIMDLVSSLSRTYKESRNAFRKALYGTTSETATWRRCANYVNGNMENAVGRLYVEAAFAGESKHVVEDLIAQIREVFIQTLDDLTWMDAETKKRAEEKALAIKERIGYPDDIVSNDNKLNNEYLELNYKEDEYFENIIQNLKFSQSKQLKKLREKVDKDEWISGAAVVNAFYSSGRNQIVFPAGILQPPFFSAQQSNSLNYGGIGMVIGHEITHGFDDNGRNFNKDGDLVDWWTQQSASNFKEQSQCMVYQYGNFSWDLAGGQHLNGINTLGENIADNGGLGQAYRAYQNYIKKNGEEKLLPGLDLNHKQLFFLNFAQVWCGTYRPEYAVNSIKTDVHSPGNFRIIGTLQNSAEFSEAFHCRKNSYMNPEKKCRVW

As to “wt CNP: wild-type C-type natriuretic peptide; half-life of approximately two minutes”, the half-life entry in data set [1] is “approximately two”.

For the molecule `CC[C@H](C)[C@@H]1NC(=O)[C@H](CCCNC(=N)N)NC(=O)[C@H](CC(=O)O)NC(=O)[C@H](CC(C)C)NC(=O)[C@H](CCCCN)NC(=O)[C@H](CC(C)C)NC(=O)CNC(=O)[C@H](Cc2ccccc2)NC(=O)[C@@H](NC(=O)CNC(=O)[C@H](CCCCN)NC(=O)[C@H](CO)NC(=O)[C@H](CC(C)C)NC(=O)CN)CSSC[C@@H](C(=O)O)NC(=O)CNC(=O)[C@H](CC(C)C)NC(=O)CNC(=O)[C@H](CO)NC(=O)[C@H](CCSC)NC(=O)[C@H](CO)NC(=O)CNC1=O` [Compound ID 0065, hCNP22], at neprilysin (NEP) [2], the “stability in the presence of recombinant human neprilysin” value is “rapidly degraded”.

`CC[C@H](C)[C@@H]1NC(=O)[C@H](CCCNC(=N)N)NC(=O)[C@H](CC(=O)O)NC(=O)[C@H](CC(C)C)NC(=O)[C@@H]2CCCN2C(=O)[C@H](CC(C)C)NC(=O)CNC(=O)[C@H](Cc2ccccc2)NC(=O)[C@@H](NC(=O)CNC(=O)[C@H](CCC(N)=O)NC(=O)[C@H](CO)NC(=O)[C@H](CO)NC(=O)CNC(=O)[C@H](CCCCN)NC(=O)[C@H](CCCCN)NC(=O)[C@H](CCC(N)=O)NC(=O)[C@H](C)NC(=O)CNC(=O)[C@@H]2CCCN2C(=O)[C@H](C)NC(=O)[C@H](CCC(N)=O)NC(=O)CNC(=O)COCCOCCNC(=O)COCCOCCNC(=O)CC[C@H](NC(=O)CCCCCCCCCCCCCCCCC(=O)O)C(=O)O)CSSC[C@@H](C(=O)O)NC(=O)CNC(=O)[C@H](CC(C)C)NC(=O)CNC(=O)[C@H](CO)NC(=O)[C@H](CC(C)C)NC(=O)[C@H](CO)NC(=O)CNC1=O` [Compound 9384] ({C18 diacid-γGlu-AEEA-AEEA}-GQAPGAQKKGSSQGCFGLPLDRIGSLSGLGC-OH; disulfide 15-31): the “Number of injections by severity of necrosis: NAD (No Abnormalities Detected)” value in data set [3] was 4. Further, the clearance in data set [4] (iv, i.v., read-out: CL (ml/hr/kg), Intravenous PK (converted)) was 1.53 mL/h/kg. Also, the half-life in data set [4] (iv, i.v., read-out: T½, iv (converted)) is 2.54 days; in data set [4] (sc, s.c., read-out: T½, sc (converted)) it was 2.54 days. Besides, the bioavailability in data set [4] (sc, s.c. bioavailability, read-out: F (%), Subcutaneous PK) stood at 78%. Further, the amount remaining at 1.5 h, 1000 nM on neprilysin (NEP) [5] is 87.8%. Besides, the “Number of injections by severity of necrosis: Min.” value in data set [6] was 1. For the same molecule, the “Number of injections by severity of necrosis: NAD” value in data set [6] came to 3.

Take “Compound ID 9483, [N-terminal(C18d-4xgGlu), 5Q, 13Q, 19S, 25P, 27E, 32L]-hCNP37 (peptide)”: in data set [7], the Remaining of parent after 90 min (%) came to 106%.

B1: Compound ID 9384, [N-terminal(C18d-gGlu-2xOEG-GQAP), des1-10, 13Q, 17S, 19Q, 25P, 32L]-hCNP37 (peptide)
peptide: {C18d-γGlu-AEEA-AEEA}-GQAPGAQKKGSSQGCFGLPLDRIGSLSGLGC
modifications: disulfide 15-31 (inferred); reading uncertain; also: printed as [N-terminal(C18d-gGlu-2xOEG-GQAP), des1-10, 13Q, 17S, 19Q, 25P, 32L]-hCNP37
In the case of B1, the “Remaining of parent after 90 min (%)” value in data set [8] worked out at 87.8%.

B2: Compound ID 9482, [N-terminal(C18d-5xgGlu), 5Q, 13Q, 19S, 25P, 32L]-hCNP37 (peptide)
peptide: {C18d-γGlu-γGlu-γGlu-γGlu-γGlu}-QEHPQARKYKGAQKKGLSSGCFGLPLDRIGSLSGLGC
modifications: disulfide 21-37 (inferred); reading uncertain
As for B2, the “Remaining of parent after 90 min (%)” value in data set [8] turned out to be 96.3%.

B3: Compound ID 9480, [N-terminal(C18d-3xgGlu-4xOEG), des1-8, 13Q, 19Q, 25P, 32L]-hCNP37 (peptide)
peptide: {C18d-γGlu-γGlu-γGlu-AEEA-AEEA-AEEA-AEEA}-YKGAQKKGLSQGCFGLPLDRIGSLSGLGC
modifications: disulfide 13-29 (inferred); reading uncertain; also: printed as [N-terminal(C18d-3xgGlu-4xOEG), des1-8, 13Q, 19Q, 25P, 32L]-hCNP37
With B3, the “Remaining of parent after 90 min (%)” value in data set [8] was 98.3%.

B4: Compound ID 9407, [N-terminal(C18d-5xgGlu-4xOEG), des1-5, 13Q, 19Q, 25P, 32L]-hCNP37 (peptide)
peptide: {C18d-γGlu-γGlu-γGlu-γGlu-γGlu-AEEA-AEEA-AEEA-AEEA}-ARKYKGAQKKGLSQGCFGLPLDRIGSLSGLGC
modifications: disulfide 16-32 (inferred); reading uncertain; also: printed as [N-terminal(C18d-5xgGlu-4xOEG), des1-5, 13Q, 19Q, 25P, 32L]-hCNP37
For the molecule B4, the “Remaining of parent after 90 min (%)” value in data set [8] was found to be 96.6%.

B5: Compound ID 9435, [N-terminal(C18d-2xgGlu-4xOEG), des1-8, 13Q, 17G, 19Q, 25P, 32L]-hCNP37 (peptide)
peptide: {C18d-γGlu-γGlu-AEEA-AEEA-AEEA-AEEA}-YKGAQKKGGSQGCFGLPLDRIGSLSGLGC
modifications: disulfide 13-29 (inferred); reading uncertain; also: printed as [N-terminal(C18d-2xgGlu-4xOEG), des1-8, 13Q, 17G, 19Q, 25P, 32L]-hCNP37
As to B5, the “Remaining of parent after 90 min (%)” value in data set [8] was 93.2%.

The record behind these values is US20240209028A1, “CNP COMPOUNDS” (priority 2022, published 2024).
